Laboratory results published in patent publication US8193149B2, “Use of Peptide YY, alone or in combination with glucagon-like peptide, for use in medicine” (mondoBIOTECH Laboratories AG, priority 2007, dated 2012).
No end group written: not given here.

Key:
HIV-1IIIB = assay: HIV-1 antiviral assay in CEM-SS cells (MTS readout); type: cell-based
HCMV strain AD169 = assay: HCMV plaque formation assay in MRC-5 cells; type: cell-based
[1] = tested on: Primary Human endothelial cells (HUVEC); assay: Endothelial cell migration assay; type: cell-based; details: single peptide, 10 micrograms per ml, 22 hours
[2] = tested on: hepatitis B virus (HBV) ayw strain in HepG2-2.2.15 cells; assay: HBV experimental assay system, secreted HBV DNA by TaqMan PCR; type: cell-based; details: single peptide, 10 micrograms per ml; HepG2-2.2.15, six days
Procedure: HepG2-2.2.15 is a stable cell line containing the hepatitis B virus (HBV) ayw strain genome (ATCC Cat. No. CRL-11997). […] After 16-24 hours the confluent monolayer of HepG2-2.2.15 cells was washed and the medium was replaced with complete medium containing test peptides—10 micrograms per ml—in duplicate. […] Three days later the culture medium was replaced with fresh medium containing the peptides. Six days following the initial administration of the peptides, the cell culture supernatants was collected, treated with pronase and DNAse and then used in a real-time quantitative TaqMan PCR assay. The PCR-amplified HBV DNA was detected in real-time by monitoring increases in fluorescence signals that result from the exonucleolytic degradation of a quenched fluorescence probe molecule that hybridizes to the amplified HBV DNA. For each PCR amplification, a standard curve was simultaneously generated using dilutions of purified HBV DNA. Antiviral activity was calculated from the reduction in HBV DNA levels (% virus control).

HUVEC = assay: Endothelial tube formation assay; type: cell-based, human; details: single peptide, 10 micrograms per ml, 20 hours
Procedure: The endothelial tube formation assay is based on the ability of endothelial cells to form three-dimensional capillary-like tubular structures when cultured on a gel of basement membrane extract. […] Pre-labeled HUVEC with Calcein AM were seeded in a 96-well culture plate coated with extracellular metrix (Chemicon international Cat. ECM625) and treated with test peptides—10 micrograms per ml—in full growth medium. Positive control was vehicle only. The endothelial cells were allowed to form tubes foe 20 hours and were then examined under an inverted fluorescent microscope. Duplicate wells for each treatment were photographed and quantitatevily analyzed for an average tubule length using image analysis software ImageProPlus. Raw data were expressed as average tubule lenghs in pixels ± standard deviation. Statistic p values were computed using the Student's t-test.

spleen cells = assay: Th1/Th2 cytokine profiling assay; type: cell-based, Balb/c mice; details: 10 micrograms per ml; Ovalbumin restimulation, 72 hours

Compound: CC(C)(C)NC(=O)[C@@H]1CN(Cc2cccnc2)CCN1C[C@@H](O)C[C@@H](Cc1ccccc1)C(=O)N[C@H]1c2ccccc2C[C@H]1O [indinavir]
- antiviral activity of positive control compounds (HIV-1) (HIV-1IIIB): expected levels of antiviral activity

Compound: His-Asp-Glu-Phe-Glu-Arg-His-Ala-Glu-Gly-Thr-Phe-Thr-Ser-Asp-Val-Ser-Ser-Tyr-Leu-Glu-Gly-Gln-Ala-Ala-Lys-Glu-Phe-Ile-Ala-Trp-Leu-Val-Lys-Gly-Arg-Gly-OH (HDEFERHAEGTFTSDVSSYLEGQAAKEFIAWLVKGRG-OH; listed as Homo sapiens) [Peptide 2, commercially available known peptide]
- inhibition of HCMV plaque formation as compared to the virus control (HCMV strain AD169; 10 micrograms per ml, 7-10 days): did not inhibit
- inhibition of the migration of human endothelial cells [1]: 65%
- inhibition of HBV replication as compared to the virus control infection [2]: 62.3%
- inhibition of the tube formation of human endothelial cells (HUVEC): 25%
- IFNγ spleen cells; TH1 response (% of control) (spleen cells): 78.0 % of control
- IL-2 spleen cells (% of control) (spleen cells): 163.4 % of control
- IL-4 spleen cells; TH2 response (% of control) (spleen cells): 135.2 % of control
- IL-5 spleen cells; TH2 response (% of control) (spleen cells): 121.7 % of control
- TNF-a spleen cells; TH1 response (% of control) (spleen cells): 145.1 % of control

Compound: Cc1cn([C@H]2C[C@H](N=[N+]=[N-])[C@@H](CO)O2)c(=O)[nH]c1=O [AZT]
- antiviral activity of positive control compounds (HIV-1) (HIV-1IIIB): expected levels of antiviral activity

Compound: Nc1nc(O)c2ncn(COC(CO)CO)c2n1 [Ganciclovir, reference compound]
- antiviral activity of positive control compound (HCMV) (HCMV strain AD169; HCMV AD169): expected levels of antiviral activity
